From US7807703B2, “Substituted aryl ketones” (Bayer CropScience AG, priority 2002, dated 2010) come the findings set out here.

Molecules are shown by their SMILES.

This data set is described as follows: log P determination by reversed-phase HPLC (EEC Directive 79/831 Annex V.A8; acidic or neutral mobile phase). Format: physicochemical. The settings on record: for chromatographic logP: reversed-phase C18 HPLC column, read-out: log P; for chromatographic logP / log P (acidic) / log P / logP (HPLC, mobile phase not marked): HPLC, reversed-phase C 18, 43° C.; for chromatographic logP / log P / logP (HPLC, mobile phase not marked): mobile phase range not marked; for log P (acidic): acetonitrile (marked a) or acidic). Summed up:
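Reversed-phase C18 HPLC per EEC Directive 79/831 Annex V.A8 at 43° C. Linear gradient of 10% to 90% acetonitrile, run against 0.1% aqueous phosphoric acid for the acidic range (a) or 0.01 molar aqueous phosphate buffer for the neutral range (b).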

[1] abbreviates: HPLC reversed-phase C18, 43° C., acidic range: 0.1% aqueous phosphoric acid, acetonitrile (marked a)).
Where [2] appears, read: HPLC, reversed-phase C18, 43° C.; acidic range a): 0.1% aqueous phosphoric acid, acetonitrile, linear gradient 10% to 90% acetonitrile.
Setting [3] is: acidic range: 0.1% aqueous phosphoric acid.
The mark [4] stands for this setting: HPLC reversed-phase C18, 43° C., acidic range: 0.1% aqueous phosphoric acid, acetonitrile gradient (marked a)).

On to `CCOC(=O)c1ccc(Cl)c(OCCN)c1Cl` [ethyl 3-(2-aminoethoxy)-2,4-dichlorobenzoate], for which the chromatographic logP stood at 1.08.

Take `CS(=O)(=O)c1ccc(C(=O)C2C(=O)CCCC2=O)c(Cl)c1CNOCc1ccccc1` [Example 199]: under setting [1], the logP result was “(I-2) logP = 3.04^a)”.

Turning to `CON(Cc1ccoc1)Cc1c(S(C)(=O)=O)ccc(C(=O)C2C(=O)CCCC2=O)c1Cl` [Example 428], the logP entry under setting [2] is listed as “(I-2) logP = 3.10^a)”.

As for `COc1c(C(=O)C2C(=O)CC(C)CC2=O)ccc(Cl)c1CN(C)OC` (centres unmarked) [Example 482], under setting [2], the logP entry is on record as “(I-2) logP = 3.09^a)”.

Take `C=CCN(Cc1c(S(C)(=O)=O)ccc(C(=O)OC)c1Cl)OC` [VIII-35]: the “log P (acidic)” value under setting [3] is on record as “logPacidic = 2.87”.

Consider `CCn1ncc(C(=O)c2ccc(Br)c(OCCNS(C)(=O)=O)c2Br)c1O` [Example 17], for which, under setting [4], the logP result is “logP = 1.71^a)”.

In the case of `CN(Cc1c(Cl)ccc(C(=O)c2cnn(C)c2O)c1Cl)S(C)(=O)=O` [Example 457], the logP result under setting [2] is “logP = 1.44^a)”.

As to `CONCc1c(Cl)ccc(C(=O)OC)c1Cl` [VIII-6], the “log P” value was “logP = 2.26”.

`CS(=O)(=O)c1ccc(C(=O)C2C(=O)CCCC2=O)c(Cl)c1CNOCCOc1ccccc1` [Example 442]: the logP result under setting [2] was “(I-2) logP = 3.07^a)”.

As for `CCN(Cc1c(S(C)(=O)=O)ccc(C(=O)c2cnn(C)c2O)c1Cl)OC` [Example 310], the “logP (HPLC, mobile phase not marked)” value was determined as 1.84.

With `CCN(CC)C(=O)CN(Cc1c(S(C)(=O)=O)ccc(C(=O)c2cnn(C)c2O)c1Cl)OC` [Example 388], under setting [2], the logP entry is on record as “(I-2) logP = 1.59^a)”.

For the molecule `COC(=O)c1ccc(S(C)(=O)=O)c(CN(C)OCC2CCCO2)c1Cl` (centres unmarked) [VIII-64], the “log P (acidic)” value under setting [3] is “logPacidic = 2.51”.

As to `CCN(CC)C(=O)CN(Cc1c(S(C)(=O)=O)ccc(C(=O)c2cnn(CC)c2O)c1Cl)OC` [Example 389], the logP entry under setting [2] is listed as “(I-2) logP = 1.85^a)”.

Take `CON(Cc1cccnc1)Cc1c(S(C)(=O)=O)ccc(C(=O)C2C(=O)CCCC2=O)c1Cl` [Example 216]: under setting [1], the logP entry was “(I-2) logP = 1.47^a)”.

For `COC(=O)c1ccc(S(C)(=O)=O)c(CN(C)OCC2CCCCO2)c1Cl` (centres unmarked) [VIII-65], under setting [3], the “log P (acidic)” value is recorded as “logPacidic = 2.87”.

`COC(=O)c1ccc(S(C)(=O)=O)c(CN(CC2CCOC2)OC2CCCC2)c1Cl` (centres unmarked) [VIII-56]: the “log P (acidic)” value under setting [3] is listed as “logPacidic = 3.30”.

`CS(=O)(=O)c1ccc(C(=O)C2C(=O)CCCC2=O)c(Cl)c1CNOCc1ccccc1` [Example 348]: the “logP (HPLC, mobile phase not marked)” value is given as “(I-2) 3.04”.

As to `CCON(CC)Cc1c(S(C)(=O)=O)ccc(C(=O)c2cnn(CC)c2O)c1Cl` [Example 451], the logP entry under setting [2] was “logP = 2.44^a)”.

On to `CN(Cc1c(S(C)(=O)=O)ccc(C(=O)c2cnn(C)c2O)c1Cl)OCC1CCCCO1` (centres unmarked) [Example 440], for which, under setting [2], the logP result is recorded as “(I-2) logP = 2.01^a)”.

For the molecule `CCOC(=O)c1ccc(Cl)c(OCCNS(=O)(=O)CC(F)(F)F)c1Cl` [VIII-17], the “log P” value was “logP = 3.08”.

Consider `COC(=O)c1ccc(S(C)(=O)=O)c(OCCNS(C)(=O)=O)c1Cl` [VIII-30], for which, under setting [3], the “log P (acidic)” value is given as “logPacidic = 1.56”.

Consider `CCn1ncc(C(=O)c2ccc(Cl)c(CN(C)OC)c2OC)c1O` [Example 479], for which, under setting [2], the logP entry is “logP = 2.35^a)”.

With `CCON(C)Cc1c(S(C)(=O)=O)ccc(C(=O)c2cnn(C)c2O)c1Cl` [Example 414], the logP entry under setting [2] is “logP = 1.71^a)”.

Consider `CCN(Cc1c(S(C)(=O)=O)ccc(C(=O)c2c(C)nn(C)c2O)c1Cl)OC` [Example 407], for which the logP entry under setting [2] is reported as “(I-2) logP = 1.76^a)”.

For `CN(Cc1c(S(C)(=O)=O)ccc(C(=O)C2C(=O)CCCC2=O)c1Cl)OCC1CCOC1` (centres unmarked) [Example 434], the logP entry under setting [2] is reported as “(I-2) logP = 2.67^a)”.

As for `CCn1ncc(C(=O)c2ccc(S(C)(=O)=O)c(CN(C)OCC3CC3)c2Cl)c1O` [Example 443], the logP entry under setting [2] was “(I-2) logP = 2.41^a)”.

Consider `CCN(Cc1c(S(C)(=O)=O)ccc(C(=O)C2C(=O)CCC(C)(C)C2=O)c1Cl)S(C)(=O)=O` (centres unmarked) [Example 466], for which the logP result under setting [2] was “(I-2) logP = 2.64^a)”.

For the molecule `COCCON(C)Cc1c(S(C)(=O)=O)ccc(C(=O)C2C(=O)CCCC2=O)c1Cl` [Example 429], the logP entry under setting [2] was “(I-2) logP = 2.43^a)”.

Consider `C=CCN(Cc1c(S(C)(=O)=O)ccc(C(=O)c2cnn(CC)c2O)c1Cl)OC` [Example 157], for which the logP entry under setting [4] is on record as “(I-2) logP = 2.29^a)”.

As to `CCCS(=O)(=O)NCCOc1c(Cl)ccc(C(=O)C2C(=O)CCCC2=O)c1Cl` [Example 168], the logP result under setting [4] is “logP = 2.67^a)”.

For `COc1c(C(=O)C2C(=O)CCCC2=O)ccc(Cl)c1CN(C)S(C)(=O)=O` [Example 472], the logP entry under setting [2] is on record as “logP = 2.20^a)”.

For the molecule `COC(=O)c1ccc(S(C)(=O)=O)c(CNOCCOc2ccccc2)c1Cl` [VIII-62], the “log P (acidic)” value under setting [3] is on record as “logPacidic = 2.93”.

As for `COC(=O)c1ccc(S(C)(=O)=O)c(CNOC2CCCC2)c1Cl` [VIII-48], under setting [3], the “log P (acidic)” value is “logPacidic = 2.93”.

Regarding `CON(C)Cc1c(S(C)(=O)=O)ccc(C(=O)C2C(=O)CCCC2=O)c1Cl` [Example 303], the “logP (HPLC, mobile phase not marked)” value was “(I-2) 2.49”.

Turning to `CCn1ncc(C(=O)c2ccc(S(C)(=O)=O)c(CN(C)S(C)(=O)=O)c2Cl)c1O` [Example 452], under setting [2], the logP entry is given as “logP = 1.25^a)”.

As for `CN(Cc1c(Cl)ccc(C(=O)C2C(=O)CCC(C)(C)C2=O)c1Cl)S(C)(=O)=O` (centres unmarked) [Example 459], under setting [2], the logP result is reported as “(I-2) logP = 3.01^a)”.

For `COCCON(C)Cc1c(S(C)(=O)=O)ccc(C(=O)C2C(=O)CCC(C)(C)C2=O)c1Cl` (centres unmarked) [Example 432], the logP result under setting [2] was “(I-2) logP = 3.22^a)”.

Take `COC(=O)c1ccc(S(C)(=O)=O)c(CN(CC(=O)N(C)C)OC)c1Cl` [VIII-53]: under setting [3], the “log P (acidic)” value is given as “logPacidic = 1.74”.

For `COCCON(C)Cc1c(S(C)(=O)=O)ccc(C(=O)OC)c1Cl` [VIII-61], the “log P (acidic)” value under setting [3] is recorded as “logPacidic = 2.26”.

On to `CON(C)Cc1c(Cl)ccc(C(=O)C2C(=O)CCCC2=O)c1Cl` [Example 1, 2-[2,4-dichloro-3-(N-methoxy-N-methylaminomethyl)benzoyl]-1,3-cyclohexanedione], for which the chromatographic logP is 3.04. In addition, the logP result (HPLC reversed-phase C18, 43° C.; no a)/b) mark printed, mobile phase not given) was “logP = 3.04”.

As for `CCS(=O)(=O)NCCOc1c(Cl)ccc(C(=O)OC)c1C` [VIII-27], the “log P (acidic)” value under setting [3] is on record as “logPacidic = 2.37”.

In the case of `C=CCN(Cc1c(S(C)(=O)=O)ccc(C(=O)OC)c1Cl)S(C)(=O)=O` [VIII-73], the “log P (acidic)” value under setting [3] is listed as “logPacidic = 2.03”.

With `CCON(Cc1c(S(C)(=O)=O)ccc(C(=O)C2C(=O)CCC(C)(C)C2=O)c1Cl)CC1CCOC1` (centres unmarked) [Example 446], under setting [2], the logP entry is reported as “(I-2) logP = 3.60^a)”.

`COC(=O)c1ccc(S(C)(=O)=O)c(CNN2CCNC2=O)c1Cl` [VIII-5]: the “log P” value is reported as “logP = 1.24”.

In the case of `COC(=O)c1ccc(S(C)(=O)=O)c(CN(OC)C(=O)C2CC2)c1Cl` [VIII-52], under setting [3], the “log P (acidic)” value is listed as “logPacidic = 2.02”.

For `CCON(Cc1c(S(C)(=O)=O)ccc(C(=O)OC)c1Cl)CC1CCOC1` (centres unmarked) [VIII-55], the “log P (acidic)” value under setting [3] was “logPacidic = 2.60”.
